The values that follow come from ChEMBL document CHEMBL1201862, “PubChem BioAssay data set” (2004).

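Results reflect a 48-hour exposure of cells in 96-well plates to compound at five concentrations. GI50 = concentration required for 50% inhibition of growth.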 Activity calls are given as the source filed them. No stated cut-off is given here; in the data, active = GI50 up to about 1.1 µM and inactive = higher. Some results are limits rather than exact numbers.

Test systems include LOX IMVI; SF-268; OVCAR-8; UO-31; SN12C; MOLT-4; SF-539; SK-MEL-28; HCT-116; SK-OV-3; NCI-H522; HOP-62; CAKI-1; EKVX; U-251; SW-620; HCT-15; MDA-N; Hs-578T.
What all share (assay): NCI tumour cell line growth inhibition, 48 h

Regarding `Nc1nc(Cl)cc(NCC2(CO)CCC2)n1`, the GI50 in the experiment with LOX IMVI, in the experiment with SF-268, in the experiment with OVCAR-8, in the experiment on UO-31, with SN12C and in the experiment on MOLT-4 was > 100 µM (inactive) each time. Also, the GI50 in the experiment with SF-539, in the experiment on SK-MEL-28, with HCT-116, with SK-OV-3, in the experiment on NCI-H522 and in the experiment with HOP-62 was > 100 µM (inactive) throughout. Further, the GI50 in the experiment with CAKI-1 is > 100 µM (inactive); with EKVX it was 75.2 µM (inactive); in the experiment on U-251 it was > 100 µM (inactive); in the experiment on SW-620 it was > 100 µM (inactive); with HCT-15 it was over 100 µM; in the experiment with MDA-N, > 100 µM (inactive). Also, the GI50 in the experiment with Hs-578T is > 100 µM (inactive).

In the case of `CC(C)=NOC(=O)CNC(=O)C(Cc1ccccc1)NC(=O)C(C)NC(=O)OC(C)(C)C` (centres undefined), the GI50 in the experiment with LOX IMVI, in the experiment with SF-268, in the experiment with OVCAR-8, in the experiment on UO-31, with SN12C and with MOLT-4 was > 100 µM (inactive) in each case. Further, the GI50 in the experiment with SF-539, with SK-MEL-28, in the experiment with HCT-116, in the experiment with SK-OV-3, in the experiment on NCI-H522 and in the experiment on HOP-62 was > 100 µM (inactive) in each case. The GI50 was > 100 µM (inactive) in the experiment on CAKI-1; > 100 µM (inactive) in the experiment with EKVX; > 100 µM (inactive) in the experiment on U-251; > 100 µM (inactive) in the experiment on SW-620; over 100 µM in the experiment on HCT-15; > 100 µM (inactive) in the experiment with MDA-N. In addition, the GI50 in the experiment with Hs-578T is > 100 µM (inactive).

Consider `O=C(O)c1nc2cc(C(F)(F)F)ccc2[nH]c1=O`, for which the GI50 in the experiment on LOX IMVI was > 100 µM (inactive); with SF-268, > 100 µM (inactive); in the experiment on OVCAR-8 it was > 100 µM (inactive); in the experiment with UO-31, 60.8 µM (inactive); in the experiment on SN12C, > 100 µM (inactive); in the experiment on MOLT-4 it was > 100 µM (inactive). The GI50 in the experiment with SF-539, with SK-MEL-28, in the experiment on HCT-116, in the experiment on SK-OV-3, with NCI-H522 and in the experiment with HOP-62 was > 100 µM (inactive) in each case. Moreover, the GI50 with CAKI-1 is > 100 µM (inactive); in the experiment on EKVX, > 100 µM (inactive); with U-251 it was > 100 µM (inactive); in the experiment on SW-620, > 100 µM (inactive); in the experiment with HCT-15 it was over 100 µM; with MDA-N, > 100 µM (inactive). In addition, in the experiment with Hs-578T, the GI50 was > 100 µM (inactive).

For `CC(C)(C)NCc1cc(Nc2ccnc3cc(Cl)ccc23)cc(-c2ccc(Cl)cc2)c1O`, the GI50 is 2.17 µM (inactive) with LOX IMVI; 3.48 µM (inactive) in the experiment with SF-268; 3.81 µM (inactive) with OVCAR-8; 4.17 µM (inactive) with UO-31; 3.11 µM (inactive) in the experiment on SN12C; 1.82 µM (inactive) in the experiment on MOLT-4. For the same compound, the GI50 was 1.85 µM (inactive) in the experiment on SF-539; 1.72 µM (inactive) in the experiment on SK-MEL-28; 2.08 µM (inactive) with HCT-116; 3.07 µM (inactive) with SK-OV-3; 3.65 µM (inactive) in the experiment on NCI-H522; 2.06 µM (inactive) in the experiment on HOP-62. In addition, the GI50 with CAKI-1 was 2.99 µM (inactive); in the experiment with EKVX it was 3.72 µM (inactive); in the experiment on U-251 it was 2.59 µM (inactive); in the experiment with SW-620, 2.26 µM (inactive); with HCT-15 it was 2.44 µM; in the experiment with MDA-N it was 1.68 µM (inactive). For the same compound, the GI50 in the experiment with Hs-578T is 3.43 µM (inactive).

Take `N#Cc1c(N)nc(Sc2ccccc2N)c(C#N)c1-c1ccc(Cl)cc1`: the GI50 in the experiment on LOX IMVI was 4.45 µM (inactive); in the experiment on SF-268, 6.24 µM (inactive); in the experiment with OVCAR-8 it was 9.12 µM (inactive); in the experiment with UO-31, 2.79 µM (inactive); in the experiment on SN12C, 13.8 µM (inactive); with MOLT-4, 1.37 µM (inactive). The GI50 was 11.8 µM (inactive) in the experiment on SF-539; 33.6 µM (inactive) in the experiment on SK-MEL-28; 6.81 µM (inactive) in the experiment with HCT-116; 12 µM (inactive) in the experiment with SK-OV-3; 11.6 µM (inactive) in the experiment on NCI-H522; 3.7 µM (inactive) in the experiment with HOP-62. The GI50 in the experiment with CAKI-1 is 17.9 µM (inactive); in the experiment on EKVX it was 4.29 µM (inactive); with U-251, 7.59 µM (inactive); in the experiment with SW-620 it was > 33.3 µM (inactive); in the experiment with HCT-15, 7.4 µM; in the experiment on MDA-N it was 9.91 µM (inactive). Further, in the experiment with Hs-578T, the GI50 was 7.26 µM (inactive).

Regarding `CS(=O)(=O)C(=Cc1ccccc1Cl)S(C)(=O)=O`, the GI50 in the experiment with LOX IMVI, in the experiment with SF-268, in the experiment with OVCAR-8, in the experiment on UO-31, in the experiment with SN12C and in the experiment on MOLT-4 was > 100 µM (inactive) throughout. The GI50 with SF-539 is > 100 µM (inactive); with SK-MEL-28, > 100 µM (inactive); in the experiment with HCT-116, 31.1 µM (inactive); in the experiment with SK-OV-3, > 100 µM (inactive); in the experiment on NCI-H522, > 100 µM (inactive); in the experiment with HOP-62, > 100 µM (inactive). Further, the GI50 in the experiment on CAKI-1 was > 100 µM (inactive); in the experiment on EKVX, > 100 µM (inactive); with U-251, > 100 µM (inactive); in the experiment with SW-620, > 66.4 µM (inactive); with HCT-15, over 100 µM; in the experiment with MDA-N, > 46.5 µM (inactive). Also, the GI50 with Hs-578T was > 91.2 µM (inactive).

For `O=c1[nH]c(=O)n(C2CC(O)C(CO)O2)c2nc3cc4ccccc4cc3nc12` (centres undefined), the GI50 in the experiment with LOX IMVI was > 100 µM (inactive); in the experiment on SF-268, 73.1 µM (inactive); in the experiment on OVCAR-8 it was 54.3 µM (inactive); with UO-31, > 100 µM (inactive); with SN12C it was > 100 µM (inactive); in the experiment with MOLT-4 it was 61.7 µM (inactive). The GI50 was > 100 µM (inactive) in the experiment with SF-539; > 100 µM (inactive) in the experiment on SK-MEL-28; > 100 µM (inactive) in the experiment on HCT-116; > 100 µM (inactive) in the experiment on SK-OV-3; > 100 µM (inactive) with NCI-H522; 33.9 µM (inactive) in the experiment on HOP-62. Besides, the GI50 was > 100 µM (inactive) in the experiment on CAKI-1; > 100 µM (inactive) with EKVX; 59.2 µM (inactive) in the experiment with U-251; > 100 µM (inactive) with SW-620; over 100 µM with HCT-15; > 100 µM (inactive) with MDA-N. In addition, in the experiment on Hs-578T, the GI50 is > 100 µM (inactive).

Take `CCCCC1C=Cn2c(=O)oc3c(OC(C)C)c(OC(C)C)c(O)c1c32` (centres undefined): the GI50 with LOX IMVI was 14.3 µM (inactive); in the experiment with SF-268, 18.5 µM (inactive); in the experiment on OVCAR-8 it was 14.9 µM (inactive); in the experiment with UO-31, 13.6 µM (inactive); in the experiment with SN12C, 20.5 µM (inactive); with MOLT-4 it was 6.1 µM (inactive). Moreover, the GI50 was 23.6 µM (inactive) in the experiment with SF-539; 13.6 µM (inactive) with SK-MEL-28; 17.4 µM (inactive) with HCT-116; 25.2 µM (inactive) in the experiment with SK-OV-3; 11.6 µM (inactive) in the experiment with NCI-H522; 20.7 µM (inactive) in the experiment with HOP-62. Further, the GI50 with CAKI-1 is 15.1 µM (inactive); in the experiment with EKVX, 29.9 µM (inactive); with U-251 it was 16 µM (inactive); in the experiment with SW-620 it was 13.9 µM (inactive); with HCT-15, 14.6 µM; in the experiment on MDA-N, 20.9 µM (inactive). Also, the GI50 in the experiment on Hs-578T was 18.3 µM (inactive).

Take `C/C(=N\NC(=S)NC(C)(C)C)c1nc2cccnc2[nH]1`: the GI50 was 3.4 µM (inactive) with LOX IMVI; 6.53 µM (inactive) in the experiment on SF-268; 1.5 µM (inactive) with OVCAR-8; 1.06 µM (active) with UO-31; 7.74 µM (inactive) in the experiment with SN12C; 2.13 µM (inactive) with MOLT-4. In addition, the GI50 with SF-539 was 3.21 µM (inactive); in the experiment on SK-MEL-28, 8.71 µM (inactive); in the experiment with HCT-116 it was 3.59 µM (inactive); in the experiment with SK-OV-3, 3.08 µM (inactive); in the experiment on NCI-H522, 4.53 µM (inactive); in the experiment on HOP-62, 6.15 µM (inactive). The GI50 is 3.33 µM (inactive) with CAKI-1; 2.5 µM (inactive) in the experiment on EKVX; 1.15 µM (inactive) with U-251; 3.47 µM (inactive) in the experiment on SW-620; 2.47 µM in the experiment with HCT-15; 7.38 µM (inactive) in the experiment on MDA-N. For the same compound, in the experiment with Hs-578T, the GI50 is 3.36 µM (inactive).

As to `CSc1nc2c(c(N(C)C)n1)C(O)n1c(nc3ccccc31)S2` (centres undefined), the GI50 is 9.38 µM (inactive) with LOX IMVI; 32.7 µM (inactive) in the experiment with SF-268; 14.6 µM (inactive) in the experiment with OVCAR-8; > 50.2 µM (inactive) in the experiment with UO-31; > 100 µM (inactive) in the experiment with SN12C; > 100 µM (inactive) in the experiment on MOLT-4. Further, the GI50 in the experiment on SF-539 was 15.2 µM (inactive); in the experiment with SK-MEL-28, 46.2 µM (inactive); in the experiment on HCT-116, 23 µM (inactive); in the experiment with SK-OV-3 it was 16.5 µM (inactive); in the experiment with NCI-H522, 12 µM (inactive); in the experiment on HOP-62, 23 µM (inactive). Further, the GI50 is > 58.5 µM (inactive) in the experiment on CAKI-1; > 100 µM (inactive) in the experiment with EKVX; > 22.7 µM (inactive) in the experiment on U-251; > 100 µM (inactive) in the experiment on SW-620; over 100 µM in the experiment on HCT-15; > 55.1 µM (inactive) with MDA-N. In the experiment on Hs-578T, the GI50 was 14.1 µM (inactive).

As to `O=C1CC[N+]2=Cc3ccccc3O[B-]2(c2ccccc2)O1` (centres undefined), the GI50 in the experiment on LOX IMVI, in the experiment on SF-268, with OVCAR-8, in the experiment with UO-31, with SN12C and with MOLT-4 was > 100 µM (inactive) each time. Besides, the GI50 with SF-539, with SK-MEL-28, in the experiment with HCT-116, in the experiment with SK-OV-3, in the experiment on NCI-H522 and in the experiment on HOP-62 was > 100 µM (inactive) throughout. The GI50 in the experiment with CAKI-1 was > 100 µM (inactive); in the experiment on EKVX, > 100 µM (inactive); with U-251, > 100 µM (inactive); in the experiment on SW-620 it was > 100 µM (inactive); in the experiment on HCT-15, over 100 µM; with MDA-N, > 100 µM (inactive). Further, the GI50 in the experiment on Hs-578T is > 100 µM (inactive).
